Data: US20240018158A1, “BRM TARGETING COMPOUNDS AND ASSOCIATED METHODS OF USE” (Prelude Therapeutics Incorporated, priority 2020, published 2024)

Key:
Type in all cases: cell-based
SMARCA2 [1] = biological target: T1, SMARCA2 (Homo sapiens (Human), UniProt P51531); assay: SMARCA2 HiBiT degradation assay in HeLa cells; conditions: 18 hours; for DC50: read-out: DC50 (SM2-HeLa) SMARCA2 degradation potency; for Dmax: read-out: Dmax % (SM2-HeLa) maximum SMARCA2 degradation within the concentrations tested
T1 sequence (P51531 whole entry): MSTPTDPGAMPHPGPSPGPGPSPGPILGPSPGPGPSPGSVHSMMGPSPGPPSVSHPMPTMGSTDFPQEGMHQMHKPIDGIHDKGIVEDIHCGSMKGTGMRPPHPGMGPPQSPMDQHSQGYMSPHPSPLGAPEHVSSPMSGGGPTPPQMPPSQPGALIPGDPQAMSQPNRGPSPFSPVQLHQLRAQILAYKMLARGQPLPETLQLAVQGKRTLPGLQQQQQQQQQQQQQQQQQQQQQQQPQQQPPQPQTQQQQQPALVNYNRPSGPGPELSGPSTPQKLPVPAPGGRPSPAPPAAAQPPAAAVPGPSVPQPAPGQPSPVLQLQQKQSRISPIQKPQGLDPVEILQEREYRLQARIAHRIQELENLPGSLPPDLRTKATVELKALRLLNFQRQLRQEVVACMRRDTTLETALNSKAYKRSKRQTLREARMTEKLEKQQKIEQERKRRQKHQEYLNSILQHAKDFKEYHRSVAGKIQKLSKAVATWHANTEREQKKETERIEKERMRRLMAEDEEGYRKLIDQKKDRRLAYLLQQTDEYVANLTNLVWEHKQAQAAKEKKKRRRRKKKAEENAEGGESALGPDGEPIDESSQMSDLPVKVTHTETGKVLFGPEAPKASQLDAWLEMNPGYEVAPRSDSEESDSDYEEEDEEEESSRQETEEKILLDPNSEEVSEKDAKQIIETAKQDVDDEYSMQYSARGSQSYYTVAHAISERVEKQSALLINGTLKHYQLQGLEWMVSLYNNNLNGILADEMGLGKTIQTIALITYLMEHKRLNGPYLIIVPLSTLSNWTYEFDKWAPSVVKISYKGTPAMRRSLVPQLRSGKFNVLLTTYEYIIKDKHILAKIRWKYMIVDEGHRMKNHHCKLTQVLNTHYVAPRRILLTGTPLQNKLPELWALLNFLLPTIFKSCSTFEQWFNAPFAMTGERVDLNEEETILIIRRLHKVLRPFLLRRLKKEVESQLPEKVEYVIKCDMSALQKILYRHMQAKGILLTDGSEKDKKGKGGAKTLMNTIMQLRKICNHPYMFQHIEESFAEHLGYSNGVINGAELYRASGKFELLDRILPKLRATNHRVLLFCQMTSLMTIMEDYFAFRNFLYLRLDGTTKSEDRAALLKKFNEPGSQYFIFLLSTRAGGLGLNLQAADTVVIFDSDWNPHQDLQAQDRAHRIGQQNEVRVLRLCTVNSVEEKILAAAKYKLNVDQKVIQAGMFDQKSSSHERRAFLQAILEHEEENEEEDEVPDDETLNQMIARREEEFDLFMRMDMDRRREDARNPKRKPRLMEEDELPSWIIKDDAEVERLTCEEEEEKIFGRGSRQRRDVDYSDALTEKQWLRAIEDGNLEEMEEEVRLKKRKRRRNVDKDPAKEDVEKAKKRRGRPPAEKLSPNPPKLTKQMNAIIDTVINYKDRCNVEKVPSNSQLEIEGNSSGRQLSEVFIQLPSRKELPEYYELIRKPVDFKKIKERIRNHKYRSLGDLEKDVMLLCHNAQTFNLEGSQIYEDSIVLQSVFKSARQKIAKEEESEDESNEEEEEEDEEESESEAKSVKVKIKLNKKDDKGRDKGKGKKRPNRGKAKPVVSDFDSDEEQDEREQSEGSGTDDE
Experimental: (§1) HiBiT peptide knock-in of SMARCA2 in LgBiT expressing HEK293T cells was performed by CRISPR-mediated tagging system as described Promega. The homozygous HiBiT knock-in on c-terminus SMARCA2 was confirmed by sanger sequence. SMARCA2-HiBiT knock-in Hela monoclonal cell (CS302366) and SMARCA4-HiBiT knock-in Hela monoclonal cell (CS3023226) were purchased from Promega. The heterozygous HiBiT-knock-in was confirmed by sanger sequence in both SMARCA2-HiBiT and SMARCA4-HiBiT monoclonal cells.
(§2) Dispense 10 μL aliquot of prepared Hela-SMARCA2-HiBiT or Hela-SMARCA4-HiBiT cells (1:1 ratio of cells:Trypan Blue (#1450013, Bio-Rad)) onto cell counting slide (#145-0011, Bio-Rad) and obtain cell density and cell viability using cell counter (TC20, Bio-Rad). Remove appropriate volume of resuspended cells from culture flask to accommodate 2500 cells/well @ 20 μL/well. Transfer Hela-HiBiT cells to 50 ml conical (#430290, Corning). Spin down at 1000 rpm for 5 min using tabletop centrifuge (SPINCHRON 15, Beckman). Discard supernatant and resuspend cell pellet in modified EMEM (#30-2003, ATCC) cell culture media containing 10% FBS (F2422-500ML, Sigma), and 1×Penicillin/Streptomycin (200 g/1) (30-002-CI, Corning) to a cell density of 125,000 cells/ml. Dispense 20 μL of resuspended Hela-HiBit cells per well in 384-well TC treated plate (#12-565-343, Thermo Scientific) using standard cassette (#50950372, Thermo Scientific) on Multidrop Combi (#5840310, Thermo Scientific) inside laminar flow cabinet. Dispense test compounds onto plates using digital liquid dispenser (D300E, Tecan). Incubate plates in humidified tissue culture incubator @37° C. for 18 hours. Add 20 ul of prepared Nano-Glo® HiBiT Lytic detection buffer (N3050, Promega) to each well of 384-well plate using small tube cassette (#24073295, Thermo Scientific) on Multidrop Combi, incubate @ RT for 30-60 min. Read plates on microplate reader (Envision 2105, PerkinElmer) using 384 well Ultra-Sensitive luminescence mode. Raw data files and compound information reports are swept into centralized data lake and deconvoluted using automated scripts designed by TetraScience, Inc. Data analysis, curve-fitting and reporting done in Dotmatics Informatics Suite using Screening Ultra module.

SMARCA4 = SMARCA4 (Homo sapiens (Human), UniProt P51532); assay: SMARCA4 HiBiT degradation assay in HeLa cells; conditions: 18 hours; for DC50: read-out: DC50 (SM4-HeLa) SMARCA4 degradation potency; for Dmax: HeLa, read-out: Dmax % (SM4-HeLa) maximum SMARCA4 degradation within the concentrations tested
Chain of SMARCA4 (P51532 whole entry): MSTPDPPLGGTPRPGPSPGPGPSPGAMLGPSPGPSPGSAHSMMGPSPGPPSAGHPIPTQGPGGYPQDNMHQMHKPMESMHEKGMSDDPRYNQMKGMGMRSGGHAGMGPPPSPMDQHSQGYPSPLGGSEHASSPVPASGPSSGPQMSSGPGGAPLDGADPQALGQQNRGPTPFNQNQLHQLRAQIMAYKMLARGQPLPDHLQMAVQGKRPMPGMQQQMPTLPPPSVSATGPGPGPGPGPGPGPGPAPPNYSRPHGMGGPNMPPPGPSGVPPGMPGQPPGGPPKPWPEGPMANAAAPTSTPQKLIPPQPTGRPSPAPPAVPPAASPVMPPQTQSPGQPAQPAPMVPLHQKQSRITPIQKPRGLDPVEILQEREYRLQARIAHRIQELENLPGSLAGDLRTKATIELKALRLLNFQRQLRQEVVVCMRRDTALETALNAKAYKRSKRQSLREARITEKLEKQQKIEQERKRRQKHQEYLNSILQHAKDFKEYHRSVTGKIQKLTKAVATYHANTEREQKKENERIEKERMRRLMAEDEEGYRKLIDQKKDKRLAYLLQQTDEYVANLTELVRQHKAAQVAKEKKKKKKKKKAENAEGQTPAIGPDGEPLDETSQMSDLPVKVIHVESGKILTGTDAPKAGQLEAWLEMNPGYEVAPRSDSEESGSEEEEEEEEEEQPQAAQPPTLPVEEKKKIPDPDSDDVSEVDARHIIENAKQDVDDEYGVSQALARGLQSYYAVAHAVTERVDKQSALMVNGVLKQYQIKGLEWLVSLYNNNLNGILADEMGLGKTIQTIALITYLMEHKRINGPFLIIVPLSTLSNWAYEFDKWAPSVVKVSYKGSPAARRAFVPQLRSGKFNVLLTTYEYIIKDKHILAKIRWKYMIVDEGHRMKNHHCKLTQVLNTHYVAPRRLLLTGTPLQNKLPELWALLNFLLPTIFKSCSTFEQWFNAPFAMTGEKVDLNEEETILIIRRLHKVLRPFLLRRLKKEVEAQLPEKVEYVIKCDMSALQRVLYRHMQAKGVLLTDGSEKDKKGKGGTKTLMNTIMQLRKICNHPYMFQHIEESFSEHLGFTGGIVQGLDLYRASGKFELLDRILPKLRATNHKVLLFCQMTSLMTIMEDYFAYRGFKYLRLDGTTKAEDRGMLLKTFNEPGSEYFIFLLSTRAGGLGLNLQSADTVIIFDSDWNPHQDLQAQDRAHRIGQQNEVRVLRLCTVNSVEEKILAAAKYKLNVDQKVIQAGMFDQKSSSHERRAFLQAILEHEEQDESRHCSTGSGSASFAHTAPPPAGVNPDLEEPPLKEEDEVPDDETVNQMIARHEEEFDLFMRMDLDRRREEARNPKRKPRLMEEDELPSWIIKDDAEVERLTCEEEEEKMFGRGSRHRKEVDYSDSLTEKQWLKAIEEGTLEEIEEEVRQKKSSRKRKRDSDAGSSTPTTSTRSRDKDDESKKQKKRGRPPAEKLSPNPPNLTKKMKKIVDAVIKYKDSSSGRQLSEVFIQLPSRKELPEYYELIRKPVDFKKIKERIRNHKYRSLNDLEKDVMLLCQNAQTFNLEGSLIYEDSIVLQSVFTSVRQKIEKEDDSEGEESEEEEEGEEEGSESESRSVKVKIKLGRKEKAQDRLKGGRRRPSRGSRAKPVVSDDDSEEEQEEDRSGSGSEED
Experimental: as §1, §2

SMARCA2 [2] = biological target: T1, SMARCA2; assay: SMARCA2 HiBiT degradation assay in HEK293T cells; conditions: 293T HiBiT assay, 24 h; for DC50: read-out: DC50 (SM2-293T) SMARCA2 degradation potency; for Dmax: HEK-293T, read-out: Dmax % (SM2-293T) maximum SMARCA2 degradation within the concentrations tested
How it was run: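 LgBiT-expressing HEK293T cells with homozygous C-terminal HiBiT knock-in on endogenous SMARCA2 treated 24 h with 11-point 3-fold compound dilutions. Lytic HiBiT luminescence normalized to DMSO (high) and 1 μM PRT1001728 (low) controls; DC50 from four-parameter curve fit.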

Row | Compound | DC50 (SMARCA2 [1]) | Dmax (SMARCA2 [1]) | DC50 (SMARCA4) | Dmax (SMARCA4) | Dmax % (SM4-HeLa) maximum SMARCA4 degradation within the concentrations tested (SMARCA4) | DC50 (SMARCA2 [2]) | Dmax (SMARCA2 [2])
1 | Cc1ncsc1-c1ccc([C@H](C)NC(=O)[C@@H]2C[C@@H](O)CN2C(=O)[C@@H](c2cc(OCCN3CCC(C(=O)N4CCN5c6cc(-c7ccccc7O)nnc6NC[C@H]5C4)CC3)no2)C(C)C)cc1 [Example 98, (2S,4R)-4-hydroxy-1-((R)-2-(3-(2-(4-((S)-2-(2-hydroxyphenyl)-6,6a,7,8,9,10-hexahydro-5H-pyrazino[1′,2′:4,5]pyrazino[2,3-c]pyridazine-8-carbonyl)piperidin-1-yl)ethoxy)isoxazol-5-yl)-3-methylbutanoyl)-N-((S)-1-(4-(4-methylthiazol-5-yl)phenyl)ethyl)pyrrolidine-2-carboxamide] | < 100 nM | > 75% | < 100 nM | > 75% | – | – | –
2 | CCC(CN1CCC(N2CCN3c4cc(-c5ccccc5O)nnc4NC[C@H]3C2)C1)Oc1cc(C(C(=O)N2C[C@H](O)C[C@H]2C(=O)N[C@@H](C)c2ccc(-c3scnc3C)cc2)C(C)C)on1 (stereo partly drawn) [Example 61, (2S,4R)-4-hydroxy-1-(2-(3-((1-(3-((S)-2-(2-hydroxyphenyl)-5,6,6a,7,9,10-hexahydro-8H-pyrazino[1′,2′:4,5]pyrazino[2,3-c]pyridazin-8-yl)pyrrolidin-1-yl)butan-2-yl)oxy)isoxazol-5-yl)-3-methylbutanoyl)-N-((S)-1-(4-(4-methylthiazol-5-yl)phenyl)ethyl)pyrrolidine-2-carboxamide] | < 100 nM | > 75% | < 100 nM | – | B (B = 50%< Dmax <=75%) | – | –
3 | Cc1ncsc1-c1ccc([C@H](C)NC(=O)[C@@H]2C[C@@H](O)CN2C(=O)[C@@H](c2cc(OCCN3CC=C(CN4CCN5c6cc(-c7ccccc7O)nnc6NC[C@H]5C4)CC3)no2)C(C)C)cc1 [Example 90, (2S,4R)-4-hydroxy-1-((R)-2-(3-(2-(4-(((S)-2-(2-hydroxyphenyl)-5,6,6a,7,9,10-hexahydro-8H-pyrazino[1′,2′:4,5]pyrazino[2,3-c]pyridazin-8-yl)methyl)-3,6-dihydropyridin-1(2H)-yl)ethoxy)isoxazol-5-yl)-3-methylbutanoyl)-N-((S)-1-(4-(4-methylthiazol-5-yl)phenyl)ethyl)pyrrolidine-2-carboxamide] | < 100 nM | > 75% | < 100 nM | > 75% | – | – | –
4 | Cc1ncsc1-c1ccc([C@H](C)NC(=O)[C@@H]2C[C@@H](O)CN2C(=O)[C@@H](c2cc(OCCN3CCC(N4CCN5c6cc(-c7ccccc7O)nnc6NCC5(C)C4)C3)no2)C(C)C)cc1 (stereo partly drawn) [Example 71, (2S,4R)-4-hydroxy-1-((2R)-2-(3-(2-(3-(2-(2-hydroxyphenyl)-6a-methyl-5,6,6a,7,9,10-hexahydro-8H-pyrazino[1′,2′:4,5]pyrazino[2,3-c]pyridazin-8-yl)pyrrolidin-1-yl)ethoxy)isoxazol-5-yl)-3-methylbutanoyl)-N-((S)-1-(4-(4-methylthiazol-5-yl)phenyl)ethyl)pyrrolidine-2-carboxamide] | < 100 nM | > 75% | < 100 nM | > 75% | – | – | –
5 | Cc1ncsc1-c1ccc([C@H](C)NC(=O)[C@@H]2C[C@@H](O)CN2C(=O)[C@@H](c2cc(OCCN3CCC(N4CCC(N5CCN6c7cc(-c8ccccc8O)nnc7NC[C@H]6C5)C4)CC3)no2)C(C)C)cc1 (single isomer, unassigned) [Example 70] | < 100 nM | – | < 100 nM | – | – | – | –
6 | Cc1ncsc1-c1ccc([C@H](C)NC(=O)[C@@H]2C[C@@H](O)CN2C(=O)[C@@H](c2cc(OCCN3CCN(CCN4CCC(N5CCN6c7cc(-c8ccccc8O)nnc7NC[C@H]6C5)CC4)CC3)no2)C(C)C)cc1 [Example 21, (2S,4R)-4-hydroxy-1-((R)-2-(3-(2-(4-(2-(4-((S)-2-(2-hydroxyphenyl)-5,6,6a,7,9,10-hexahydro-8H-pyrazino[1′,2′:4,5]pyrazino[2,3-c]pyridazin-8-yl)piperidin-1-yl)ethyl)piperazin-1-yl)ethoxy)isoxazol-5-yl)-3-methylbutanoyl)-N-((S)-1-(4-(4-methylthiazol-5-yl)phenyl)ethyl)pyrrolidine-2-carboxamide] | – | – | – | – | – | < 100 nM | > 75%
7 | Cc1ncsc1-c1ccc([C@H](C)NC(=O)[C@@H]2C[C@@H](OC(=O)C(C)C)CN2C(=O)[C@@H](c2cc(OCCN3CCN4c5cc(-c6ccccc6O)nnc5NC[C@H]4C3)no2)C(C)C)cc1 [Example 10, (3R,5S)-1-((R)-2-(3-(2-((S)-2-(2-hydroxyphenyl)-5,6,6a,7,9,10-hexahydro-8H-pyrazino[1′,2′:4,5]pyrazino[2,3-c]pyridazin-8-yl)ethoxy)isoxazol-5-yl)-3-methylbutanoyl)-5-(((S)-1-(4-(4-methylthiazol-5-yl)phenyl)ethyl)carbamoyl)pyrrolidin-3-yl isobutyrate] | – | – | – | – | – | < 100 nM | > 75%
8 | Cc1ncsc1-c1ccc([C@H](C)NC(=O)[C@@H]2C[C@@H](O)CN2C(=O)[C@H](NC(=O)OCCN2CCN3c4cc(-c5ccccc5O)nnc4NCC3C2)C(C)(C)C)cc1 (stereo partly drawn) [Example 7, 2-(2-(2-hydroxyphenyl)-5,6,6a,7,9,10-hexahydro-8H-pyrazino[1′,2′:4,5]pyrazino[2,3-c]pyridazin-8-yl)ethyl ((R)-1-((2S,4R)-4-hydroxy-2-(((S)-1-(4-(4-methylthiazol-5-yl)phenyl)ethyl)carbamoyl)pyrrolidin-1-yl)-3,3-dimethyl-1-oxobutan-2-yl)carbamate] | – | – | – | – | – | 100 to 1000 nM | > 75%
9 | Cc1ncsc1-c1ccc([C@H](C)NC(=O)[C@@H]2C[C@@H](O)CN2C(=O)C(c2cc(COC(=O)N3CCC(N4CCN5c6cc(-c7ccccc7O)nnc6NC[C@H]5C4)CC3)no2)C(C)C)cc1 (stereo partly drawn) [Example 53, (5-(1-((2S,4R)-4-hydroxy-2-(((S)-1-(4-(4-methylthiazol-5-yl)phenyl)ethyl)carbamoyl)pyrrolidin-1-yl)-3-methyl-1-oxobutan-2-yl)isoxazol-3-yl)methyl 4-((S)-2-(2-hydroxyphenyl)-5,6,6a,7,9,10-hexahydro-8H-pyrazino[1′,2′:4,5]pyrazino[2,3-c]pyridazin-8-yl)piperidine-1-carboxylate] | – | – | – | – | – | < 100 nM | > 75%
10 | Cc1nccn1-c1ccc([C@H](C)NC(=O)[C@@H]2C[C@@H](O)CN2C(=O)[C@@H](c2cc(OCCN3CCC(CN4CCN5c6cc(-c7ccccc7O)nnc6NC[C@H]5C4)CC3)no2)C(C)C)cc1 [Example 37, (2S,4R)-4-hydroxy-1-((R)-2-(3-(2-(4-(((S)-2-(2-hydroxyphenyl)-5,6,6a,7,9,10-hexahydro-8H-pyrazino[1′,2′:4,5]pyrazino[2,3-c]pyridazin-8-yl)methyl)piperidin-1-yl)ethoxy)isoxazol-5-yl)-3-methylbutanoyl)-N-((S)-1-(4-(2-methyl-1H-imidazol-1-yl)phenyl)ethyl)pyrrolidine-2-carboxamide] | – | – | – | – | – | < 100 nM | > 75%
11 | Cc1ncsc1-c1ccc([C@H](C)NC(=O)[C@@H]2C[C@@H](O)CN2C(=O)[C@@H](c2cc(OCCN3CCC(N4CCN5c6cc(-c7ccccc7O)nnc6NC[C@H]5C4)C3)no2)C(C)C)cc1 (single isomer, unassigned) [Example 18] | – | – | – | – | – | < 100 nM | –
12 | Cc1ncsc1-c1ccc([C@H](C)NC(=O)[C@@H]2C[C@@H](O)CN2C(=O)[C@@H](c2cc(OCCN3CCCC(N4CCN5c6cc(-c7ccccc7O)nnc6NC[C@H]5C4)CC3)no2)C(C)C)cc1 (stereo partly drawn) [Example 16, (2S,4R)-4-hydroxy-1-((2R)-2-(3-(2-(4-((S)-2-(2-hydroxyphenyl)-5,6,6a,7,9,10-hexahydro-8H-pyrazino[1′,2′:4,5]pyrazino[2,3-c]pyridazin-8-yl)azepan-1-yl)ethoxy)isoxazol-5-yl)-3-methylbutanoyl)-N-((S)-1-(4-(4-methylthiazol-5-yl)phenyl)ethyl)pyrrolidine-2-carboxamide] | – | – | – | – | – | < 100 nM | > 75%
